Where a name gives a salt, the structure may show the parent alone.
Key:
[1] = target: T1, human β3 (Homo sapiens, UniProt P13945); assay: Human β3-agonist activities (cAMP in transfected CHO cells); format: cell-based; conditions: CHO cells transfected with human β3 gene; for EC50: cAMP quantitated by EIA after 30 minutes; for Emax: read-out: Intrinsic activity* (relative activities as compared with isoproterenol)
T1 construct: used as a probe to obtain the full length human β3 gene from a human genomic library; expressed in transfected cells; host or cells: CHO (Chinese hamster ovary) cells, pcDNA3 vector
Protocol: Human β3-agonist activities were determined using CHO (Chinese hamster ovary) cells transfected with pcDNA3 (mfd. by Invitrogen) to which human β3 gene had been inserted. Human β3 fragment was first obtained from human adipose tissue cDNA (mfd. by Clonetech) by PCR using the primer of β3 (Krief, et al., J. Clin. Invest., vol. 91, pp. 344-349 (1993)). The human β3 fragment thus obtained was used as a probe to obtain the full length human β3 gene from a human genomic library (mfd. by Clonetech). The above cells were cultured in a Ham F-12 medium supplemented with 10% fetal bovine serum, 400 μg/mL geneticin (Gibco BRL), 100 U/mL penicillin and 100 μg/mL streptomycin. After placing these cells (5×10^5) into a 6-well plate and culturing them for 24 hours, they were allowed to stand on a serum-free Ham F-12 medium for 2 hours. The compound was first dissolved in DMSO, diluted to a concentration of 10^−6 M with Ham F-12 supplemented with 1 mM isobutylmethylxanthine and 1 mM ascorbic acid, and then added to the cells. After the cells were cultured for 30 minutes, the medium was removed, followed by addition of 0.5 mL of 1 N NaOH. The medium was allowed to stand for 20 minutes and then 0.5 mL of 1 N acetic acid was added to the medium. The medium was stirred and centrifuged, followed by quantitating cAMP with cAMP EIA kit (mfd. by Cayman). With respect to eight compounds among the compounds described in Examples, their relative activities (%) as compared with isoproterenol were indicated in Table 3. Isoproterenol was purchased from RBI (Research Biochemicals International). The results from Table 3 indicate that the compounds of the present invention have human β3-agonist activities.

[2] = system: transgenic mouse expressing human β3; assay: Thermogenesis in transgenic mouse expressing human β3; format: in vivo; conditions: orally administered to transgenic mice, 3 to 10 mg/kg
From the text: Ito, et al. prepared a replacement mouse expressing human β3 in its brown fat by introducing human β3 gene into a mouse whose mouse β3 gene had been knocked out (Ito, et al., Diabetes, vol. 47, pp. 1464-1471 (1998)). A compound of the present invention can be tested for antiobestic activity and antidiabetic activity using a transgenic mouse according to the following procedures.
The thermogenesis can be measured with OXYMAX System (Columbus) according to the method reported by Largis et al. (Drug Development Research, vol. 32, pp. 69-76 (1994)). According to this device, the amount of thermogenesis can be obtained by calculating the calories based on the amount of oxygen consumed and the amount of carbon dioxide generated. After the administration of a medicinal substance, the measurements are carried out for 120 minutes (15 points). The average of the measured values obtained for the latter […] (10 points) is converted into a value per body weight to give the amount of thermogenesis. When a test by repetitive administrations is carried out, a medicinal substance may be administered at a dose once daily, twice daily or the like. The duration of administration may be 1 week, 2 weeks or more. In a test by repetitive administrations, body weight, blood glucose level and insulin level can be monitored with the passage of time as the method of Largis et al. (Drug Development Research, vol. 32, pp. 69-76 (1994). It is also possible that after the completion of the administration, the animal is anatomized to measure the weight of fat tissue or to prepare a section followed by a microscopic examination. Further, the expression level of UCP-1 can be examined according to the method reported by Nagase et al. (J. Clin. Invest., vol. 97, pp. 2898-2904 (1996)).
The present compounds were orally administered to transgenic mice in an amount of from 3 to 10 mg/kg to measure their thermogenesis.

[3] = system: male ddy mice; assay: Toxicity test; format: in vivo; conditions: orally administered to 6-week old male ddy mice at 100 mg/kg
[4] = cAMP, relative to isoproterenol

T1 sequence (P13945 whole entry): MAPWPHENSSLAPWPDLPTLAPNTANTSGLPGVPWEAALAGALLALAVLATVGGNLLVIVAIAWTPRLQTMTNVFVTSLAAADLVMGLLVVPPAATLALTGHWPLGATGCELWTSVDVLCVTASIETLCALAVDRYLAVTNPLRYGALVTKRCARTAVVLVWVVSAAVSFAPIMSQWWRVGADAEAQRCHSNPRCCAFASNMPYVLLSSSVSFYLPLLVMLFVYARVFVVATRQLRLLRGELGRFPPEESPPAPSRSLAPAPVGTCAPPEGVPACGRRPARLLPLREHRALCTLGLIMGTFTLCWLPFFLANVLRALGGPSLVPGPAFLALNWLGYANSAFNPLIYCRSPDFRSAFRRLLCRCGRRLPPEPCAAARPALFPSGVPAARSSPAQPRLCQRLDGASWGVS

| Structure (SMILES) | EC50 [1] | Emax [1, 4] | Increase of thermogenesis as compared with the control group [2] | Mortality [3] | Intrinsic activity* (relative activities as compared with isoproterenol) [1, 4] |
| --- | --- | --- | --- | --- | --- |
| Cc1[nH]c2cc(OCCNC[C@H](O)c3ccc(Cl)c(NS(C)(=O)=O)c3)ccc2c1C.Cl [Example 10, (R)-N-[5-[2-[2-(2,3-dimethyl-1H-indol-6-yloxy)ethylamino]-1-hydroxyethyl]-2-chlorophenyl]methanesulfonamide hydrochloride] | 4.5 nM | 78% | 15% | none of eight animals were found to be dead |  |
| CNS(=O)(=O)c1cc(C(O)CNCCOc2ccc3c(C)c(C)[nH]c3c2)ccc1O.O=C(O)C(F)(F)F (stereo not shown) [Example 9, N-methyl-[5-[2-[2-(2,3-dimethyl-1H-indol-6-yloxy)ethylamino]-1-hydroxyethyl]-2-hydroxy]benzenesulfonamide trifluoroacetate] | 16 nM |  |  | none of eight animals were found to be dead | 62% |
| Cc1c(-c2ccccc2)[nH]c2cc(OCCNC[C@H](O)c3cccc(NS(C)(=O)=O)c3)ccc12.Cl [Example 13, (R)-N-[3-[2-[2-(3-methyl-2-phenyl-1H-indol-6-yloxy)ethylamino]-1-hydroxyethyl]phenyl]methanesulfonamide hydrochloride] | 14 nM | 96% | 15% |  |  |
| Cc1[nH]c2cc(OCCNCC(O)c3cccc(NS(C)(=O)=O)c3)ccc2c1C.O=C(O)C(F)(F)F (stereo not shown) [Example 3, N-[3-[2-[2-(2,3-dimethyl-1H-indol-6-yloxy)ethylamino]-1-hydroxyethyl]phenyl]methanesulfonamide trifluoroacetate] | 8.7 nM | 100% |  | none of eight animals were found to be dead |  |
| Cc1[nH]c2cc(OCCNCC(O)c3ccc(Cl)c(NS(C)(=O)=O)c3)ccc2c1C (stereo not shown) [Example 4, N-[5-[2-[2-(2,3-dimethyl-1H-indol-6-yloxy)ethylamino]-1-hydroxyethyl]-2-chlorophenyl]methanesulfonamide trifluoroacetate] | 10 nM | 73% |  |  |  |
| Cc1c(-c2ccccc2)[nH]c2cc(OCCNC[C@H](O)c3ccc(Cl)c(NS(C)(=O)=O)c3)ccc12 [Example 17, (R)-N-[5-[2-[2-(3-methyl-2-phenyl-1H-indol-6-yloxy)ethylamino]-1-hydroxyethyl]-2-chlorophenyl]methanesulfonamide hydrochloride] | 4.4 nM | 94% |  |  |  |
| Cc1[nH]c2cc(OCCNC[C@H](O)c3cccc(NS(C)(=O)=O)c3)ccc2c1C.Cl [Example 11, (R)-N-[3-[2-[2-(2,3-dimethyl-1H-indol-6-yloxy)ethylamino]-1-hydroxyethyl]phenyl]methanesulfonamide hydrochloride] | 4.8 nM | 80% | 17% |  |  |
| CNS(=O)(=O)c1cc([C@@H](O)CNCCOc2ccc3c(C)c(C)[nH]c3c2)ccc1O [Example 12, N-methyl-(R)-[5-[2-[2-(2,3-dimethyl-1H-indol-6-yloxy)ethylamino]-1-hydroxyethyl]-2-hydroxy]benzenesulfonamide hydrochloride] | 5.3 nM | 71% |  |  |  |

From patent publication US7049445B2, “Bicyclic compounds” (Asahi Kasei Pharma Corporation, priority 2000, dated 2006)
